Test results from patent US9833433B1, “Compositions, methods of use, and methods of treatment” (priority 2013, dated 2017).

Key:
COX-2 [1] = assay: Hippocampal COX-2 expression in mice (immunoblot); format: in vivo
COX-2 [2] = assay: COX-2 expression in neuronal and astroglial cell-enriched cultures; format: cell-based; details: assayed 12 hr after treatments
Description: Relative pure hippocampal neurons (astroglial cells<2%), mixed neurons and astroglial cells (astroglial cells ˜10%), and astroglial cell-enriched (astroglial cells>95%), and NG108-15 cell cultures were made as described previously (Sang et al, 2005; Zhang and Chen, 2008).
Primary hippocampal neurons (astroglial cells<2%), mixed neurons and astroglial cells (astroglial cells ˜10%), astroglial cell-enriched (astroglial cells>95%) and NG108-15 cells were cultured as described previously (Sang et al, 2005; Zhang and Chen, 2008). The extent of neurons and astroglial cells in culture were controlled by different treatments, which was estimated by using immunostaining with NeuN, a neuronal marker, glial fibrillary acidic protein (GFAP), an astrocytic marker, and OX-42, a microglial marker, in conjunction with DAPI staining.

PGE2 [3] = assay: PGE2 assay in hippocampal tissue (enzyme immunoassay); format: in vivo, mice
Description: PGE2 in hippocampal tissue was detected using PGE2 enzyme immunoassay kit (Cayman Chemical, Ann Arbor, Mich.) according to the procedure described by the manufacturer (Zhang and Chen, 2008).

[4] = tested on: hippocampal LTP at CA3-CA1 and perforant path synapses; assay: Hippocampal LTP (fEPSP recordings in slices, theta-burst stimulation); format: in vivo, mice
Description: Hippocampal LTP both at CA3-CA1 and perforant path synapses were recorded in acutely hippocampal slices and induced by a theta-burst stimulation (TBS) as described previously (Hoffman et al., 2007).
Hippocampal slices were prepared from mice as described previously (Chen et al., 2002; Chen et al., 2012; Fan et al., 2010). Briefly, after decapitation, brains were rapidly removed and placed in cold oxygenated (95% O2, 5% CO2) artificial cerebrospinal fluid (ACSF) containing: 125.0 NaCl, 2.5 KCl, 1.0 MgCl2, 25.0 NaHCO3, 1.25 NaH2PO4, 2.0 CaCl2, 25.0 glucose, 3 pyruvic acid, and 1 ascorbic acid. Slices were cut at a thickness of 350-400 μm and transferred to a holding chamber in an incubator containing ACSF at 36° C. for 0.5 to 1 hour, and maintained in an incubator containing oxygenated ACSF at room temperature (˜22-24° C.) for >1.5 h before recordings. Slices were then transferred to a recording chamber where they were continuously perfused with 95% O2, 5% CO2-saturated standard ACSF at ˜32-34° C. Individual pyramidal and dentate granule neurons were viewed with an upright microscope (Olympus BX51WI) fitted with a 60× water-immersion objective and differential interference contrast (DIC) optics.
Field EPSP (fEPSP) recordings both at CA3-CA1 and perforant path synapses in response to stimuli at a frequency of 0.05 Hz were made using an Axoclamp-2B patch-clamp amplifier (Molecular Devices, CA) in bridge mode. Recording pipettes were pulled from borosilicate glass with a micropipette puller (Sutter Instrument), filled with artificial ACSF (2-4 MΩ). […]

spatial memory = assay: Morris water maze test (spatial memory); format: in vivo, mice; details: NS398 10 mg/kg + Δ^9-THC 10 mg/kg once a day for 7 days
Description: (§1) The classic Morris water maze and fear conditioning tests were performed to determine spatial and fear memory as described previously (Chen et al., 2012). The ‘open field’ test was conducted to detect the locomotor activity and the bar test was used to detect catalepsy (Egashira et al., 2007).
The classic Morris water maze test was used to determine spatial memory as described previously (Chen et al., 2012). A circular water tank (diameter 120 cm and 75 cm in high) was filled with water and the water was made opaque with non-toxic white paint. A round platform (diameter 15 cm) was hidden 1 cm beneath the surface of the water at the center of a given quadrant of the water tank. COX-2 KO and WT mice received training in the Morris water maze for 5 days without any treatments (naïve). […] For each trial, the mouse was released from the wall of the tank and allowed to search, find, and stand on the platform for 10 seconds within the 60-second trial period. […] During the probe test, the platform was removed from the pool, and the task performances were recorded for 60 seconds by a video-camera and the task performances, including swimming paths, speed, and time spent in each quadrant using an EthoVision video tracking system (Noldus). The time spent in each quadrant was analyzed.

fear memory = assay: Fear conditioning test (contextual memory); format: in vivo, mice; details: NS398 10 mg/kg + Δ^9-THC 10 mg/kg once a day for 7 days
Description: as §1
Hippocampus-dependent contextual memory was determined using a fear-conditioning working-station (Coulbourn Instruments, Allentown, Pa.) and a one-trial protocol as describe previously (Chen et al., 2006a; 2006b). Mice were individually put into the shock chamber and allowed to freely explore the environment for 150 seconds. Immediately after this, a tone at 90 dB and 2,800 Hz (CS) was delivered for 30 seconds, and at the last 2 seconds a foot shock at 0.8 mA was delivered to the mice for 2 seconds (US). After the pairing of CS/US, mice were allowed to stay in the chamber for another 30 seconds and then returned to their home cages. Then the animals started receiving vehicle, Δ^9-THC (10 mg/kg), NS398 (10 mg/kg), Δ^9-THC+NS398 once a day for 7 days. Fear memory test was conducted 24 hours after the cessation of the last injections. For contextual conditioning, mice were individually put back into the chamber where they received the shock and the freezing response was recorded for 5 minutes with a sampling method at an interval of 5 seconds. […]

[5] = tested on: dendritic spines of CA1 pyramidal neurons; assay: Two-photon imaging of dendritic spines in CA1 pyramidal neurons; format: in vivo, mice; details: NS398+Δ^9-THC
Description: Morphology of dendritic spines in hippocampal CA1 pyramidal neurons was determined in GFP-expressing transgenic mice using a two-photon laser scanning microscope as described previously (Chen et al., 2012). Shape, size, and density of spines were measured from the three-dimensional reconstructions using NeuronStudio Version 0.9.92.
Morphology of dendritic spines in hippocampal CA1 pyramidal neurons was determined in GFP-expressing transgenic mice treated with vehicle, Δ^9-THC or NS398+Δ^9-THC using a two-photon laser scanning microscope (Chameleon hands-free ultrafast Ti: sapphire laser with an Olympus scan head) with Olympus FLUOVIEW 300 software (Chen et al., 2012). Shape (thin, mushroom, or stubby), size, density, and volume of spines were measured from the three-dimensional reconstructions (Z stacks: 1μ step for the whole cell and 0.1μ step for a segment of dendrites) using AutoQuant X2 or 3D deconvolution plugin of Image J (http://bigwww.epfl.ch/algorithms/deconvolutionlab) and NeuronStudio (for 3D reconstruction of imaged dendritic spines, Version 0.9.92; http://research.mssm.edu/cnic/tools-ns.html, CNIC, Mount Sinai School of Medicine). […] The following parameters were used in analyzing and quantifying spines using NeuronStudio: Voxel size was set as 0.029*0.029*0.3 μm. […]

[6] = tested on: synaptic release of glutamate; assay: Miniature spontaneous EPSCs (mEPSCs) in cultured hippocampal neurons; format: cell-based; details: NS398 10 μM + Δ^9-THC 3 μM; 24 hrs
GluA1, GluN2A, GluN2B = assay: Immunostaining of synaptic and extrasynaptic glutamate receptor subunits in hippocampal CA1; details: NS398+Δ^9-THC
PGE2 [7] = details: earlier studies (Burstein et al., 1989; Fairbairn and Pickens; Perez-Reyes et al., 1991); cited from earlier work

In the case of Cc1c(C(=O)NN2CCCCC2)nn(-c2ccc(Cl)cc2Cl)c1-c1ccc(Cl)cc1 [Rimonabant], the “effect on Δ^9-THC-induced increase in COX-2 in the hippocampus” value (COX-2 [1]; RIM 5 mg/kg 30 min prior to Δ^9-THC 10 mg/kg, detected 4 hr after Δ^9-THC) is reported as “blocked” and the “effect on Δ^9-THC-induced increase in COX-2 in neurons and astroglial cells in culture” value (COX-2 [2]) is reported as “blocked”.
With CS(=O)(=O)Nc1ccc([N+](=O)[O-])cc1OC1CCCCC1 [NS398] the “effect on CP55,940-induced increase in PGE2” value (PGE2 [3]; NS398 10 mg/kg 30 min prior to CP 10 mg/kg) was “could be blocked”, the “effect on LPS-reduced hippocampal LTP” value ([4]; LPS 3 mg/kg + NS398 10 mg/kg once a day for 7 days) was “prevented” and the “effect on Δ^9-THC-decreased hippocampal LTP” value ([4]; NS398 10 mg/kg 30 min before Δ^9-THC 10 mg/kg, 7 days, CA3-CA1 and perforant path) was “rescued decreased hippocampal LTP”. The “effect on Δ^9-THC-impaired spatial memory” value (spatial memory) was “occluded by COX-2 inhibition”, the “effect on Δ^9-THC-impaired fear memory” value (fear memory) was “attenuated by COX-2 inhibition” and the “effect on Δ^9-THC-decreased dendritic spine density” value [5] was “prevented by inhibition of COX-2”. The “effect on Δ^9-THC-enhanced synaptic release of glutamate” value [6] was “blocked by inhibition of COX-2” and the “effect on Δ^9-THC-decreased glutamate receptor expression” value (GluA1, GluN2A, GluN2B) was “prevented by inhibition of COX-2”.
For COc1ccc2c(c1)c(CC(=O)O)c(C)n2C(=O)c1ccc(Cl)cc1 [indomethacin], the “effect on marijuana- or Δ^9-THC-induced elevation of PGE2 in circulation and the brain” value (PGE2 [7]) is given as “could be antagonized”.
For CCCCCCC(C)(C)c1ccc([C@@H]2C[C@H](O)CC[C@H]2CCCO)c(O)c1 [CP55,940], the “hippocampal COX-2 expression after cannabinoid injection” value (COX-2 [1]; single i.p. injection, CP55,940 10 mg/kg, detected 4 hrs) was “more pronounced effects on COX-2 expression and PGE2 synthesis” and the “hippocampal PGE2 production after cannabinoid injection” value (PGE2 [3]; 10 mg/kg, detected 4 hrs after injection) was “more pronounced effects on COX-2 expression and PGE2 synthesis”.
